Data: PubChem BioAssay (NCI)
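Where inhibition never reached the appropriate level, the endpoint shown equals the highest concentration tested. Otherwise, values were interpolated linearly from a five-concentration, 48-hour dose response in 96-well plates. Here, GI50 denotes the concentration required for 50% inhibition of growth. TGI marks complete inhibition of growth.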

Experiments:
Assay in all cases: NCI tumour cell line growth inhibition, 48 h
CAKI-1 renal = test system: CAKI-1 renal
SNB-75 CNS = test system: SNB-75 CNS
HOP-92 NSCLC = test system: HOP-92 NSCLC
SN12C renal = test system: SN12C renal
CCRF-CEM leukemia = test system: CCRF-CEM leukemia
SK-OV-3 ovarian = test system: SK-OV-3 ovarian
COLO 205 colon = test system: COLO 205 colon
TK-10 renal = test system: TK-10 renal
MDA-MB-231 breast = test system: MDA-MB-231 breast
NCI-H460 lung = test system: NCI-H460 lung
SF-295 CNS = test system: SF-295 CNS
OVCAR-4 ovarian = test system: OVCAR-4 ovarian
NCI/ADR-RES ovarian = test system: NCI/ADR-RES ovarian
IGROV1 ovarian = test system: IGROV1 ovarian
A549 NSCLC = test system: A549 NSCLC
SW-620 colon = test system: SW-620 colon
HCT-15 colon = test system: HCT-15 colon
MCF7 breast = test system: MCF7 breast
UACC-257 melanoma = test system: UACC-257 melanoma
UACC-62 melanoma = test system: UACC-62 melanoma
SF-539 CNS = test system: SF-539 CNS
SK-MEL-2 melanoma = test system: SK-MEL-2 melanoma
PC-3 prostate = test system: PC-3 prostate
NCI-H226 lung = test system: NCI-H226 lung
OVCAR-5 ovarian = test system: OVCAR-5 ovarian
T-47D breast = test system: T-47D breast
HCT-116 colon = test system: HCT-116 colon
BT-549 breast = test system: BT-549 breast
M14 melanoma = test system: M14 melanoma
K-562 leukemia = test system: K-562 leukemia
ACHN renal = test system: ACHN renal
HS 578T breast = test system: HS 578T breast
NCI-H522 lung = test system: NCI-H522 lung
A498 renal = test system: A498 renal
KM12 colon = test system: KM12 colon
HCC-2998 colon = test system: HCC-2998 colon
HL-60(TB) leukemia = test system: HL-60(TB) leukemia
786-0 renal = test system: 786-0 renal
SNB-19 CNS = test system: SNB-19 CNS
HT29 colon = test system: HT29 colon
UO-31 renal = test system: UO-31 renal
HOP-62 NSCLC = test system: HOP-62 NSCLC
MALME-3M melanoma = test system: MALME-3M melanoma
LOX IMVI melanoma = test system: LOX IMVI melanoma
DU-145 prostate = test system: DU-145 prostate
MOLT-4 leukemia = test system: MOLT-4 leukemia
SK-MEL-5 melanoma = test system: SK-MEL-5 melanoma
MDA-MB-435 = test system: MDA-MB-435
SF-268 CNS = test system: SF-268 CNS
SR leukemia = test system: SR leukemia
RPMI-8226 leukemia = test system: RPMI-8226 leukemia
SK-MEL-28 melanoma = test system: SK-MEL-28 melanoma
U251 CNS = test system: U251 CNS
NCI-H23 lung = test system: NCI-H23 lung
OVCAR-3 ovarian = test system: OVCAR-3 ovarian
OVCAR-8 ovarian = test system: OVCAR-8 ovarian

## O=C(Nc1ccc(CN2CCOCC2)cc1)c1ccc(-c2cc(Cl)ccc2Cl)o1
CAKI-1 renal
  GI50: 13 µM
  TGI: 56.4 µM
SNB-75 CNS
  GI50: 16 µM
  TGI: 36 µM
HOP-92 NSCLC
  GI50: 10.2 µM
  TGI: 33.7 µM
SN12C renal
  GI50: 16.4 µM
  TGI: 52.6 µM
CCRF-CEM leukemia
  GI50: 6.02 µM
  TGI: 49.1 µM
SK-OV-3 ovarian
  GI50: 15.1 µM
  TGI: 30.6 µM
COLO 205 colon
  GI50: 2.24 µM
  TGI: 4.19 µM
TK-10 renal
  GI50: 13.1 µM
  TGI: 29.1 µM
MDA-MB-231 breast
  GI50: 10.7 µM
  TGI: 29.5 µM
NCI-H460 lung
  GI50: 3.54 µM
  TGI: 12.4 µM
SF-295 CNS
  GI50: 5.38 µM
  TGI: 28.5 µM
OVCAR-4 ovarian
  GI50: 17.6 µM
  TGI: 67.1 µM
NCI/ADR-RES ovarian
  GI50: 17.4 µM
  TGI: > 100 µM
IGROV1 ovarian
  GI50: 23.5 µM
  TGI: 61.6 µM
A549 NSCLC
  GI50: 7.48 µM
  TGI: 32.4 µM
SW-620 colon
  GI50: 3.33 µM
  TGI: 11.5 µM
HCT-15 colon
  GI50: 3.29 µM
  TGI: 34.4 µM
MCF7 breast
  GI50: 9.98 µM
  TGI: 26.3 µM
UACC-257 melanoma
  GI50: 11.2 µM
  TGI: 24.4 µM
UACC-62 melanoma
  GI50: 2.39 µM
  TGI: 6.88 µM
SF-539 CNS
  GI50: 8.69 µM
  TGI: 24.9 µM
SK-MEL-2 melanoma
  GI50: 14.7 µM
  TGI: 30.5 µM
PC-3 prostate
  GI50: 8.63 µM
  TGI: 36.4 µM
NCI-H226 lung
  GI50: 12.2 µM
  TGI: 33.6 µM
OVCAR-5 ovarian
  GI50: 15.7 µM
  TGI: 61.1 µM
T-47D breast
  GI50: 5.34 µM
  TGI: 22.4 µM
HCT-116 colon
  GI50: 5.92 µM
  TGI: 21.4 µM
BT-549 breast
  GI50: 7.79 µM
  TGI: 43.1 µM
M14 melanoma
  GI50: 11.1 µM
  TGI: 32.4 µM
K-562 leukemia
  GI50: 2 µM
  TGI: 6.09 µM
ACHN renal
  GI50: 18.4 µM
  TGI: 97.9 µM
HS 578T breast
  GI50: 12.5 µM
  TGI: 34.4 µM
NCI-H522 lung
  GI50: 10.2 µM
  TGI: 26.6 µM
A498 renal
  GI50: 10 µM
  TGI: 22.1 µM
KM12 colon
  GI50: 4.41 µM
  TGI: 16.3 µM
HCC-2998 colon
  GI50: 9.29 µM
  TGI: 23 µM
HL-60(TB) leukemia
  GI50: 4.45 µM
  TGI: 20.9 µM
786-0 renal
  GI50: 11.8 µM
  TGI: 26.1 µM
SNB-19 CNS
  GI50: 16.2 µM
  TGI: 35.6 µM
HT29 colon
  GI50: 2.96 µM
  TGI: 12 µM
UO-31 renal
  GI50: 18.3 µM
  TGI: 78.1 µM
HOP-62 NSCLC
  GI50: 15.5 µM
  TGI: 38.5 µM
MALME-3M melanoma
  GI50: 8.74 µM
  TGI: 29.2 µM
LOX IMVI melanoma
  GI50: 2.65 µM
  TGI: 13 µM
DU-145 prostate
  GI50: 18 µM
  TGI: 63.3 µM
MOLT-4 leukemia
  GI50: 4.34 µM
  TGI: 20.5 µM
SK-MEL-5 melanoma
  GI50: 4.45 µM
  TGI: 16.7 µM
MDA-MB-435
  GI50: 11.6 µM
  TGI: 29.2 µM
SF-268 CNS
  GI50: 16.5 µM
  TGI: 49.1 µM
SR leukemia
  GI50: 2.35 µM
  TGI: 8.99 µM
RPMI-8226 leukemia
  GI50: 3.49 µM
  TGI: 17.7 µM
SK-MEL-28 melanoma
  GI50: 11.9 µM
  TGI: 26.6 µM
U251 CNS
  GI50: 4.62 µM
  TGI: 19.6 µM
NCI-H23 lung
  GI50: 12.8 µM
  TGI: 31.8 µM
OVCAR-3 ovarian
  GI50: 15.3 µM
  TGI: 39.2 µM
OVCAR-8 ovarian
  GI50: 11.4 µM
  TGI: 51.3 µM
